Experimental data: patent publication US20020137154A1, “Methods for improving cell growth and alcohol production during fermentation” (priority 2000, published 2002)

What was measured:
[1] = test system: recombinant Escherichia coli KO11; test: Batch fermentation of E. coli KO11 in 1% CSL medium and glucose with nutrient additives: ethanol production and cell growth; format: cell-based; settings: additive 2 g/L unless indicated; for Ethanol Production Maximum / Ethanol Production Maximum % Control / Ethanol yield / Initial Growth (OD @ 24 h) % Control / Initial Growth (OD @ 24 h) OD / Maximum Cell Density % Control / Maximum Cell Density OD / Maximum Cell Density Time / Time to completion / Volumetric Productivity Average / Volumetric Productivity Average % Control / Volumetric Productivity Maximum / Volumetric Productivity Maximum % Control: 1% CSL+glucose; for activity at 2000 µg/mL: Escherichia coli
Experimental: (§1) Two types of media were tested: 1% CSL and Luria broth (LB). Each contained 97 g of either xylose or glucose per liter. Luria Broth consists of, per liter: 10 g Difco® Tryptone, 5 g Difco® Yeast Extract and 5 g NaCl. The 1% CSL medium consists of Corn Steep Liquor (1% w/v) plus mineral salts (mineral salts per liter: 1 g of KH2PO4. 0.5 g of K2HPO4, 3.1 g of (NH4)2SO4, 0.4 g of MgCl2·6H2), and 20 mg FeCl3·6H2O).
(§2) Luria Broth was prepared by autoclaving a 2× nutrient stock containing, per liter: 20 g Difco® Tryptone, 10 g Difo® Yeast Extract, and 10 g NaCl. Sugars (xylose or glucose) were autoclaved separately. A 1% CSL medium was prepared as follows: Commercial Corn Steep Liquor (CSL; 50% dry weight/50% water) was diluted with tap water to make a 20X stock containing 100 g dry weight of Corn Steep Liquor/L and was adjusted to pH 7.2 with NaOH (50%). After sterilization by autoclaving, the 20X CSL stock was clarified by centrifugation at 5000×g for 10 minutes. Magnesium was added as a 100× stock solution (40 g/L MgCl2·6H2O). Iron was added as a 1000× stock solution made by dissolving 20 g FeCl3·6H2O in 175 mL of HCl and adjusting to 1 L with sterile water. Nitrogen, sulfur and phosphorus were added using a 20× stock solution containing the following (per liter): 20 g of KH2PO4, 10 g of K2HPO4 and 62 g of (NH4)2SO4. Stock solutions containing minerals were sterilized separately by autoclaving. Final media was prepared by adding 750 mL of water to 1 L bottle containing 100 g of xylose or glucose.
(§3) Inocula were grown in same media used for fermentation and were prepared as follows. Three colonies from a fresh plate were used to inoculate seed cultures: 250-mL flask containing 100 mL medium. These cultures were grown with agitation (120 rpm) for 12-16 hours at 35° C. to a final OD550nm of approximately 2.0-2.5. Cells were harvested by centrifugation at 5000×g for 5 minutes, and resuspended in fresh media to an OD550nm of 0.1. The resulting suspension was distributed into 500-mL beakers containing 345 ml each of fermentation medium. Acetaldehyde was added as indicated. Batch fermentations (35° C., 100 rpm) were maintained at pH 6.5 by the automatic addition of 2N KOH. Cell mass, ethanol, and base addition (2N KOH) were recorded during 96 hours of incubation.
Equivalent amounts of distilled water were added instead of the acetaldehyde in control experiments.
(§4) Additives (e.g., as listed in Table 1) were dissolved in 5 mL di-H2O. Solutions with pH lower than 5 were neutralized to pH 6.5 with 2N KOH. Nutritional supplements were then filter-sterilized (0.45 μm filter disk) directly into the fermentation vessel containing the culture. The final concentration of all additives in the culture medium was 2 g/L unless otherwise indicated.
(§5) Cell mass was estimated by measuring OD550nm using Baush & Lomb® Spectronic 70 spectrophotometer. […] Ethanol was measured by gas chromatography using a Varian® 3400 CX gas chromatograph with 1-propanol as an internal standard.
(§6) Tables 1, 3, and 5 show time to completion of fermentation, ethanol production, and volumetric productivity of the fermentation for all concentrations of the compound and the control. Maximum ethanol production is shown in grams/liter (g/L). The ethanol yield is shown in grams of ethanol/grams of added sugar. Maximum volumetric productivity is shown in grams ethanol/(liter)(hour). The average productivity is calculated form the start of fermentation to the completion of fermentation is grams ethanol/(liter)hour).
Tables 2, 4, and 6 show the initial growth of the cells (OD taken after the first 24 hours of fermentation) and the maximum cell density (the time which culture reaches the maximum OD value).
Acetaldehyde was added to the fermentation medium at five different concentrations and time points. […] Where two additions are indicated, the first volume was added at the start of fermentation and the second was added after 8 hours of fermentation.

[2] = test system: recombinant Escherichia coli KO11; test: Batch fermentation of E. coli KO11 in 1% CSL medium and xylose with nutrient additives: ethanol production and cell growth; format: cell-based; settings: additive 2 g/L unless indicated; for Ethanol Production Maximum / Ethanol Production Maximum % Control / Ethanol yield / Initial Growth (OD @ 24 h) % Control / Initial Growth (OD @ 24 h) OD / Maximum Cell Density % Control / Maximum Cell Density OD / Maximum Cell Density Time / Time to completion / Volumetric Productivity Average / Volumetric Productivity Average % Control / Volumetric Productivity Maximum / Volumetric Productivity Maximum % Control: 1% CSL+xylose; for activity at 2000 µg/mL: Escherichia coli
Experimental: as §1, §2
as §3, with “incubation. […]” for “incubation.”
as §4, §5, §6
Tables 2, 4, and 6 show the initial growth of the cells (OD taken after the first 24 hours of fermentation) and the maximum cell density (the time which culture reaches the maximum OD value). […]

[3] = 24 h, read-out: Initial Growth (OD @ 24 h) % Control, 1% CSL+glucose
[4] = read-out: Ethanol Production Maximum % Control, 1% CSL+glucose
[5] = read-out: Maximum Cell Density % Control, 1% CSL+glucose
[6] = read-out: Volumetric Productivity Average % Control, 1% CSL+glucose
[7] = read-out: Volumetric Productivity Maximum % Control, 1% CSL+glucose
[8] = 24 h, read-out: Initial Growth (OD @ 24 h) % Control, 1% CSL+xylose
[9] = read-out: Ethanol Production Maximum % Control, 1% CSL+xylose
[10] = read-out: Maximum Cell Density % Control, 1% CSL+xylose
[11] = read-out: Volumetric Productivity Average % Control, 1% CSL+xylose
[12] = read-out: Volumetric Productivity Maximum % Control, 1% CSL+xylose

Row | SMILES | Ethanol Production Maximum [1] | Ethanol Production Maximum % Control [1] | Ethanol yield [1] | Initial Growth (OD @ 24 h) % Control [1] | Initial Growth (OD @ 24 h) OD [1] | Maximum Cell Density % Control [1] | Maximum Cell Density OD [1] | Maximum Cell Density Time [1] | Time to completion [1] | Volumetric Productivity Average [1] | Volumetric Productivity Average % Control [1] | Volumetric Productivity Maximum [1] | Volumetric Productivity Maximum % Control [1] | Ethanol Production Maximum [2] | Ethanol yield [2] | Initial Growth (OD @ 24 h) OD [2] | Maximum Cell Density OD [2] | Maximum Cell Density Time [2] | Volumetric Productivity Average [2] | Volumetric Productivity Maximum [2] | further results
1 | O=C(O)CCC(=O)O [Succinate, succinate] | 30.13 g/L | 81.46% | 0.310 grams of ethanol/grams of added sugar | 100.47% | 2.69 OD | 98.99% | 2.66 OD | 72 h | 96 h | 0.314 grams ethanol/(liter)(hour) | 81.46% | 0.511 grams ethanol/(liter)(hour) | 99.45% | 35.00 g/L | 0.360 grams of ethanol/grams of added sugar | 2.11 OD | 3.12 OD | 96 h | 0.365 grams ethanol/(liter)(hour) | 0.400 grams ethanol/(liter)(hour) | Ethanol Production Maximum % Control [2]: 116.35%; Initial Growth (OD @ 24 h) % Control [2]: 103.40%; Maximum Cell Density % Control [2]: 124.13%; Time to completion [2]: >96 h; Volumetric Productivity Average % Control [2]: 116.35%; Volumetric Productivity Maximum % Control [2]: 108.536%
2 | C[C@H](N)C(=O)O [Alanine, alanine] | 34.37 g/L | – | 0.354 grams of ethanol/grams of added sugar | – | 2.08 OD | – | 2.68 OD | – | – | 0.358 grams ethanol/(liter)(hour) | – | 0.468 grams ethanol/(liter)(hour) | – | 21.66 g/L | 0.223 grams of ethanol/grams of added sugar | 1.66 OD | 1.73 OD | 48 h | 0.226 grams ethanol/(liter)(hour) | 0.240 grams ethanol/(liter)(hour) | activity at 2000 µg/mL [1, 3]: 78%; activity at 2000 µg/mL [1, 4]: 92.9%; activity at 2000 µg/mL [1, 5]: 99.8%; activity at 2000 µg/mL [1, 6]: 92.9%; activity at 2000 µg/mL [1, 7]: 91.1%; activity at 2000 µg/mL [2, 8]: 81.3%; activity at 2000 µg/mL [2, 9]: 72%; activity at 2000 µg/mL [2, 10]: 68.8%; activity at 2000 µg/mL [2, 11]: 72%; activity at 2000 µg/mL [2, 12]: 65.2%
3 | O=C(O)/C=C/C(=O)O [Fumarate] | 32.92 g/L | 88.98% | 0.339 grams of ethanol/grams of added sugar | 99.76% | 2.67 OD | 117.92% | 3.17 OD | 72 h | 96 h | 0.343 grams ethanol/(liter)(hour) | 88.98% | 0.559 grams ethanol/(liter)(hour) | 108.88% | 28.49 g/L | 0.293 grams of ethanol/grams of added sugar | 1.86 OD | 2.60 OD | 96 h | 0.297 grams ethanol/(liter)(hour) | 0.345 grams ethanol/(liter)(hour) | Ethanol Production Maximum % Control [2]: 94.73%; Initial Growth (OD @ 24 h) % Control [2]: 91.16%; Maximum Cell Density % Control [2]: 103.15%; Time to completion [2]: >96 h; Volumetric Productivity Average % Control [2]: 94.73%; Volumetric Productivity Maximum % Control [2]: 93.682%
4 | O=C(O)CC(O)C(=O)O (centres unmarked) [Malate, malate] | 27.58 g/L | – | 0.284 grams of ethanol/grams of added sugar | – | 3.19 OD | – | 3.39 OD | – | – | 0.287 grams ethanol/(liter)(hour) | – | 0.498 grams ethanol/(liter)(hour) | – | 24.43 g/L | 0.252 grams of ethanol/grams of added sugar | 1.71 OD | 2.42 OD | 96 h | 0.255 grams ethanol/(liter)(hour) | 0.274 grams ethanol/(liter)(hour) | activity at 2000 µg/mL [1, 3]: 119%; activity at 2000 µg/mL [1, 4]: 74.6%; activity at 2000 µg/mL [1, 5]: 126%; activity at 2000 µg/mL [1, 6]: 74.6%; activity at 2000 µg/mL [1, 7]: 97%; activity at 2000 µg/mL [2, 8]: 83.9%; activity at 2000 µg/mL [2, 9]: 81.2%; activity at 2000 µg/mL [2, 10]: 96.3%; activity at 2000 µg/mL [2, 11]: 81.2%; activity at 2000 µg/mL [2, 12]: 74.5%
